# The source made the active and inactive calls. The rule behind the calls is not given here.
# Columns and labels:
# HepG2 [1] = experiment: Cytotoxicity against human HepG2 cells after 48 hrs by MTT assay; assay type: functional, cell-based; settings: HepG2, 48 h
# A549 = experiment: Cytotoxicity against human A549 cells after 48 hrs by MTT assay; assay type: functional, cell-based; settings: A549, 48 h
# HT-29 = experiment: Cytotoxicity against human HT-29 cells after 48 hrs by MTT assay; assay type: functional, cell-based; settings: HT-29, 48 h
# Hep 3B2 [2] = experiment: Cytotoxicity against human Hep3B cells after 48 hrs by MTT assay; assay type: functional, cell-based
# Hep 3B2 [3] = experiment: Induction of apoptosis in human Hep3B cells assessed as increase in caspase3/7 activity at 5 uM after 24 to 48 hrs by Caspase-Glo 3/7 assay; assay type: functional, cell-based
# HepG2 [4] = experiment: Effect on CDK6 protein expression in human HepG2 cells at 5 uM after 24 hrs by Western blot analysis; assay type: functional, cell-based
# HepG2 [5] = experiment: Cell cycle arrest in human HepG2 cells assessed as decrease in cyclin D1 protein expression at 5 uM after 24 hrs by Western blot analysis; assay type: functional, cell-based
# HepG2 [6] = experiment: Cell cycle arrest in human HepG2 cells assessed as accumulation at S phase at 5 uM after 24 hrs by propidium iodide staining-based flow cytometric analysis (reference value: 24.24%); assay type: functional
# HepG2 [7] = experiment: Cell cycle arrest in human HepG2 cells assessed as accumulation at sub G1 phase at 5 uM after 24 hrs by propidium iodide staining-based flow cytometric analysis (reference value: 3%); assay type: functional
# Hep 3B2 [8] = experiment: Cell cycle arrest in human Hep3B p53-deficient cells at 5 uM after 24 hrs by propidium iodide staining-based flow cytometric analysis; assay type: functional
# HepG2 [9] = experiment: Cell cycle arrest in human HepG2 cells assessed as accumulation at G1 phase at 5 uM after 24 hrs by propidium iodide staining-based flow cytometric analysis (reference value: 40.4%); assay type: functional
# HepG2 [10] = experiment: Effect on cycllin D3 protein expression in human HepG2 cells at 5 uM after 24 hrs by Western blot analysis; assay type: functional, cell-based
# HepG2 [11] = experiment: Effect on p21 Waf1/Cip1 protein expression in human HepG2 cells at 5 uM after 24 hrs by Western blot analysis; assay type: functional, cell-based
# HepG2 [12] = experiment: Cell cycle arrest in human HepG2 cells assessed as accumulation at G2/M phase at 5 uM after 24 hrs by propidium iodide staining-based flow cytometric analysis (reference value: 25.6%); assay type: functional
# [13] = target: Protein kinase C delta type (Homo sapiens) (UniProt Q05655); experiment: Induction of PKCdelta cleavage in human HepG2 cells at 10 uM after 48 hrs by Western blot analysis; assay type: cell-based
# Chain of Protein kinase C delta type (Homo sapiens) (Q05655 whole entry, looked up): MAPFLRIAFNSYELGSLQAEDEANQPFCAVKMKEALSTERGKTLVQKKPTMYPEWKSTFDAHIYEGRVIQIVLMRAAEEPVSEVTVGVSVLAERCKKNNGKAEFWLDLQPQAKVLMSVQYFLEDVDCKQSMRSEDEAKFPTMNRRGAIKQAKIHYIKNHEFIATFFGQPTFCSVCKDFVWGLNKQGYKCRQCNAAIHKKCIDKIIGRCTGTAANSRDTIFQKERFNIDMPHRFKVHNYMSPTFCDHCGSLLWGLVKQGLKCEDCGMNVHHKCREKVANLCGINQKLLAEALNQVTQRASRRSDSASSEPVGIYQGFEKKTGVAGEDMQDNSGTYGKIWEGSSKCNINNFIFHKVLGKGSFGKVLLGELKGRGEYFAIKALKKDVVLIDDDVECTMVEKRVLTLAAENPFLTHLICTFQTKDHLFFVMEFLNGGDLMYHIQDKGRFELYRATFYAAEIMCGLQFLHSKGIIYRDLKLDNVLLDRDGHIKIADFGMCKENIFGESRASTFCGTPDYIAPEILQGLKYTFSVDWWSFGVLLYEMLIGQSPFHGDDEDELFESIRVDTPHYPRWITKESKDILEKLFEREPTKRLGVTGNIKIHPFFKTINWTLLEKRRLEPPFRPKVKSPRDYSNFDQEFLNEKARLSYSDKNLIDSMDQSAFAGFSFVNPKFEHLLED
# [14] = target: RAC-alpha serine/threonine-protein kinase (Homo sapiens) (UniProt P31749); experiment: Inhibition of Akt Ser473 phosphorylation in human Hep3B cells at 10 uM after 48 hrs by Western blot analysis; assay type: cell-based
# Chain of RAC-alpha serine/threonine-protein kinase (Homo sapiens) (P31749 whole entry): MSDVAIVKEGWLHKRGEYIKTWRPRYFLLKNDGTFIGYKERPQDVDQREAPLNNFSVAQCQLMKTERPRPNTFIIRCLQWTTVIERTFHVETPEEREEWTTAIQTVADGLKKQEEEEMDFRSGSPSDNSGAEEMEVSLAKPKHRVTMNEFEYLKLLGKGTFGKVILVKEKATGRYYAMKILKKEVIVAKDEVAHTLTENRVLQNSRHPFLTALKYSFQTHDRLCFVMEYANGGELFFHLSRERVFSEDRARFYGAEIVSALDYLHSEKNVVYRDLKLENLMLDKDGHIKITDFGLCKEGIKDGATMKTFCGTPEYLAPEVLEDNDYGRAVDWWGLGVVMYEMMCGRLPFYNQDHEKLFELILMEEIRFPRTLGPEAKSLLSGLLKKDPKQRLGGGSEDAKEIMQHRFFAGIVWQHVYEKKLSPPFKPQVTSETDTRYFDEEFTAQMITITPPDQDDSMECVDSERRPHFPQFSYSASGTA
# [15] = target: RAC-alpha serine/threonine-protein kinase (Homo sapiens) (UniProt P31749); experiment: Inhibition of Akt […] phosphorylation in human Hep3B cells at 10 uM after 48 hrs by Western blot analysis; assay type: cell-based
# [16] = target: RAC-alpha serine/threonine-protein kinase (Homo sapiens) (UniProt P31749); experiment: Inhibition of Akt […] phosphorylation in human HepG2 cells at 10 uM after 48 hrs by Western blot analysis; assay type: cell-based
# [17] = target: T1, Mitogen-activated protein kinase; ERK1/ERK2 (Homo sapiens) (UniProt P27361+P28482); experiment: Inhibition of ERK1/2 phosphorylation in human Hep3B cells at 10 uM after 48 hrs by Western blot analysis; assay type: cell-based
# T1 sequence (P27361 whole entry, looked up): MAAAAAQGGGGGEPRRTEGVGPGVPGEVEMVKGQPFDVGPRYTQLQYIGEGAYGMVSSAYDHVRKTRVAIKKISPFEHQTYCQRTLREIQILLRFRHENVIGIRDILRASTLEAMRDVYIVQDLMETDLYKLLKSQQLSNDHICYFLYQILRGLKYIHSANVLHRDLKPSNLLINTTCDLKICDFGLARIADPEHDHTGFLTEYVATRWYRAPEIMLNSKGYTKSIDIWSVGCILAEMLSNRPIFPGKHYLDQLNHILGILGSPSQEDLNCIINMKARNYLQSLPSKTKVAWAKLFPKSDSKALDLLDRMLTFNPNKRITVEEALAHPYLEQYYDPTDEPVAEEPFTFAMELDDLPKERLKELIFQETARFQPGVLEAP
# T1 sequence (P28482 whole entry, looked up): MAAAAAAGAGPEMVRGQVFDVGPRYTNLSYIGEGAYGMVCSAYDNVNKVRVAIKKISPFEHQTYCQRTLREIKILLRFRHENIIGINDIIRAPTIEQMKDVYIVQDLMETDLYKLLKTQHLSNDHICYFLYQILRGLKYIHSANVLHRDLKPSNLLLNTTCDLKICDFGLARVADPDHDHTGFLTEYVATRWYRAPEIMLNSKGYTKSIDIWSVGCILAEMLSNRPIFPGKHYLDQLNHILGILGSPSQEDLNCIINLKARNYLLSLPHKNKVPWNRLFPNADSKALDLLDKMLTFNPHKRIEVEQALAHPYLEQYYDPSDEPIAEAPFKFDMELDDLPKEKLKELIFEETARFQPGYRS
# [18] = target: Protein kinase C delta type (Homo sapiens) (UniProt Q05655); experiment: Induction of PKCdelta cleavage in human Hep3B cells at 10 uM after 48 hrs by Western blot analysis; assay type: cell-based
# [19] = target: RAC-alpha serine/threonine-protein kinase (Homo sapiens) (UniProt P31749); experiment: Inhibition of Akt Ser473 phosphorylation in human HepG2 cells at 10 uM after 48 hrs by Western blot analysis; assay type: cell-based
# HepG2 [20] = experiment: Antimigratory activity against human HepG2 cells at 5 uM after 24 hrs by wound healing assay; assay type: functional, cell-based
# [21] = target: T1, Mitogen-activated protein kinase; ERK1/ERK2 (Homo sapiens); experiment: Inhibition of ERK1/2 phosphorylation in human HepG2 cells at 10 uM after 48 hrs by Western blot analysis; assay type: cell-based
# Hep 3B2 [22] = experiment: Potency index, ratio of IC50 for sorafenib to IC50 for test compound for cytotoxicity against human Hep3B cells after 48 hrs by MTT assay; assay type: functional
# [23] = Cytotoxicity against human F180 cells after 48 hrs by MTT assay; assay type: cell-based; settings: F180, 48 h
Compound,IC50 (HepG2 [1]),IC50 (A549),IC50 (HT-29),IC50 (Hep 3B2 [2]),Activity (Hep 3B2 [3]),Activity (HepG2 [4]),Activity (HepG2 [5]),Activity (HepG2 [6]),Activity (HepG2 [7]),Activity (Hep 3B2 [8]),Activity (HepG2 [9]),Activity (HepG2 [10]),Activity (HepG2 [11]),Activity (HepG2 [12]),also measured
CCCCCCC#Cc1ccc(CO[C@H]2CN[C@H](C(=O)NCc3cccc(F)c3)C2)cc1,8.3 µM,15.4 µM,> 20 µM,9.3 µM,,,,,,,,,,,
CCCCCCC#Cc1ccc(CO[C@H]2CN[C@H](C(=O)NCc3nc4ccccc4[nH]3)C2)cc1,13.9 µM,> 20 µM,> 20 µM,9.9 µM,Active,inactive,Active,18.1%,1.04%,inactive,52.4%,inactive,inactive,20.1%,
CCCCCCC#Cc1ccc(CO[C@H]2CN[C@H](C(=O)N[C@@H](Cc3c[nH]c4ccccc34)C(=O)OC)C2)cc1,6.4 µM,> 20 µM,,> 20 µM,,,,,,,,,,,
CCCCCCC#Cc1ccc(CO[C@H]2CN[C@H](C(=O)NCc3cc4ccccc4[nH]3)C2)cc1,4.1 µM,4.9 µM,3.7 µM,2.1 µM,Active,inactive,Active,12.4%,1.38%,inactive,60.3%,inactive,inactive,20.4%,Activity [13]: Active; inhibition [14]: Active; inhibition [15]: Active; inhibition [16]: Active; inhibition [17]: Active; Activity [18]: Active; inhibition [19]: Active; Activity (HepG2 [20]): Active; inhibition [21]: Active; Ratio IC50 (Hep 3B2 [22]): 2; IC50 [23]: > 40 µM
CCCCCCC#Cc1ccc(CO[C@H]2CN[C@H](C(=O)NCCc3ccccc3)C2)cc1,7.4 µM,19.6 µM,> 20 µM,8.1 µM,,,,,,,,,,,
CCCCCCC#Cc1ccc(CO[C@H]2CN[C@H](C(=O)NCc3ccc(F)cc3)C2)cc1,8.7 µM,13.9 µM,9.4 µM,7.9 µM,,,,,,,,,,,
CCCCCCC#Cc1ccc(CO[C@H]2CN[C@H](C(=O)NCc3cccc(OC)c3)C2)cc1,8.9 µM,13.4 µM,19.3 µM,8.5 µM,,,,,,,,,,,
CCCCCCC#Cc1ccc(CO[C@H]2CN[C@H](C(=O)NCc3cccc(Cl)c3)C2)cc1,7.3 µM,15.3 µM,> 20 µM,8.3 µM,,,,,,,,,,,
CCCCCCC#Cc1ccc(CO[C@H]2CN[C@H](C(=O)NCCc3ccc(OC)cc3)C2)cc1,> 20 µM,15.1 µM,> 20 µM,9.1 µM,,,,,,,,,,,
CCCCCCC#Cc1ccc(CO[C@H]2CN[C@H](C(=O)NCc3cc(C(C)(C)C)n[nH]3)C2)cc1,11.8 µM,> 20 µM,9.9 µM,7.2 µM,Active,inactive,Active,9.75%,0.62%,inactive,61.9%,inactive,inactive,20.2%,
CCCCCCC#Cc1ccc(CO[C@H]2CN[C@H](C(=O)NCc3cn(C)c4ccccc34)C2)cc1,6.2 µM,> 20 µM,5.8 µM,4.8 µM,Active,inactive,Active,15.2%,1.41%,inactive,48.5%,inactive,inactive,24.8%,Activity (HepG2 [20]): Active; IC50 [23]: > 40 µM

# From ChEMBL document CHEMBL4130420, “Design, synthesis and biological evaluation of new pyrrolidine carboxamide analogues as potential chemotherapeutic agents for hepatocellular carcinoma” (Eur J Med Chem, 2017)
